The source of these data is US10550388B2, “Targeting pleiotrophin signaling to limit high-grade glioma invasion” (The Board of Trustees of the Leland Stanford Junior …, priority 2017, dated 2020).

Series [1] concerns SU-DIPG-XIII FL cells. The series can be described thus: Matrigel invasion assay (Boyden chamber) of DIPG cells. Format: cell-based, human. The settings on record: 72 hours; for DIPG invasion toward SVZ hNPC CM: inhibitor added to the cells in the top insert, dose curve, vehicle DMSO control. The protocol:
To test for chemoattraction and invasion toward neural precursor cell conditioned media or another candidate chemoattractant, a single-cell suspension of 100,000 DIPG cells in Tumor Stem Media (TSM) base (with B27 (−A) and heparin, without growth factors) was seeded in the top inserts of BioCoat growth factor reduced Matrigel invasion chambers (Corning, Bedford, Mass.), after rehydration of the inserts. Chemoattractant media was added to the bottom of the chamber. All conditions were plated in triplicate. After 72 hours, media was aspirated, and the non-invading cells on top of the layer of Matrigel were scrubbed off. The invading cells were fixed in 4% paraformaldehyde and then stained with 0.1% crystal violet in 10% methanol in distilled water. The number of invading cells was quantified by the intensity of the crystal violet dye on the invading side of the Matrigel. The dye was collected in 10% acetic acid, and absorbance was measured at 595 nm.
To test the ROCK or HSP90 inhibitors in the Matrigel invasion assay, the inhibitors were added to the suspension of glioma cells in TSM base (with B27 (−A) and heparin) seeded in the top inserts at the appropriate concentrations, and neural precursor cell conditioned media was plated in the bottom chambers. The rest of the procedure was performed as described above.

For series [2] the following is noted: rodent models (Egorin et al. 2001); cited from earlier work.
In series [3] the test system is SU-DIPG-XIII FL cells. The series is described as follows: CellTiter-Glo cell viability assay. Format: cell-based, human. The settings on record: increasing doses of inhibitor; 72 hours. The protocol: To assess cell viability, 5,000 DIPG cells per well were seeded in base media or full growth media in a 96-well plate. Inhibitors were added at the appropriate concentrations. After 72 hours, CellTiter-Glo reagent 2.0 was added at a 1:1 ratio, and cells were lysed. Luminescence was measured after stabilization of signal for 10 minutes at room temperature.

For series [4], the system named is SU-DIPG-XIII FL cells. The series is described as follows: shRNA-expressing lentivirus injected into the SVZ of orthotopically xenografted mice. Format: in vivo, NSG mice. The settings on record: vs scrambled shRNA control; for DIPG cells invading the SVZ: 16 weeks following pontine xenograft. As to the method: NSG mice at age P34-36 were orthotopically xenografted with SU-DIPG-XIII frontal lobe CMV-GFP-luciferase cells, in a similar procedure to as previously described (Grasso et al., supra; Venkatesh et al. (2015) Cell 161, 803-816). Briefly, a single-cell suspension of SU-DIPG-XIII frontal lobe CMV-GFP-luciferase cells at passage 16-19 was prepared in sterile HBSS immediately before beginning the xenograft procedure. 600,000 cells in 3 μL were stereotactically injected into the pons of the left hemisphere of NSG mice, through a 31-gauge burr hole. Stereotactic coordinates used were: 1 mm lateral to midline, 0.8 mm posterior to lambda suture, and 5 mm deep. Cells were injected at a rate of 0.4 μL/min using a digital pump and a 31-gauge Hamilton syringe. After infusion of cells, the syringe needle was kept in place for 2 minutes, and then withdrawn manually at a rate of 0.875 mm/min to minimize the backflow of cells.
(§1) Mice used for shRNA lentivirus studies received shRNA-expressing lentivirus in the SVZ at P27-29 and DIPG cells in the left pons at P34-36. For lentiviral injections, 2 μL of shRNA-expressing lentivirus were stereotactically injected into the SVZ. Stereotactic coordinates used were: 1.3 mm lateral to midline, 0.1 mm posterior to bregma suture, and 2 mm deep. Virus was injected and the needle was withdrawn according to the same procedure as described above.
Mice were imaged using an IVIS Spectrum to ensure tumor engraftment and monitor tumor size. Mice were anesthetized under 1% isoflurane, intraperitoneally injected with luciferin (15 mg/kg), and imaged for bioluminescence every minute until the peak total flux was reached.
For quantification of DIPG invasion of the SVZ after knock down of targets in the SVZ, 5 NSG mice per group were injected with shRNA-expressing lentivirus in bilateral SVZs and orthotopically xenografted with SU-DIPG-XIII FL in the left pons. Mice were perfused for analysis 16 weeks after xenograft. A 1:6 series of coronal slices from each mouse brain was immunostained and imaged, and the number of GFP^+ HNA^+ glioma cells within 200 μm of the lateral ventricles in all slices containing lateral ventricles was manually counted.
For quantification of neural stem/precursor cells in the SVZ after knock down of PTN in the SVZ, a 1:6 series of coronal slices from each mouse was immunostained and imaged, and the number of Sox2^+ neural stem/precursor cells in a 20×Z-stack was manually counted. The density of Sox2^+ cells was calculated as cells/mm^3.

Series [5] has as its system pleiotrophin. The series is described as follows: Knockdown of pleiotrophin expression in the mouse SVZ. The settings on record: stereotactic injection into the mouse SVZ; vs scrambled shRNA control. Format: in vivo. The protocol:
as §1
Mice were intraperitoneally injected with Avertin (tribromoethanol) for anesthesia, and then transcardially perfused with 20 mL of ice-cold PBS. Brains were dissected out and fixed in 4% paraformaldehyde in PBS overnight at 4° C., and were then transferred to 30% sucrose in PBS for cryoprotection. Brains were embedded in Tissue-Tek O.C.T. (Sakura, Torrance, Calif.). Brains from mice older than P10 were sliced into 40 μm coronal or sagittal sections using a sliding microtome (Microm HM450; Thermo Scientific, Waltham, Mass.). Brains from mice age P0 to P10 were sliced into 25 μm coronal sections using a cryostat (Leica Biosystems CM3050 S; 1058 Wetzlar, Germany). For immunohistochemistry, a 1 in 6 series of 25 μm or 40 μm sections was incubated in blocking solution (3% normal donkey serum, 0.3% Triton X-100 in TBS) at room temperature for 1 hour. […]

For the compound `C=CCNC1=C2C[C@@H](C)C[C@H](OC)[C@H](O)[C@@H](C)/C=C(\C)[C@H](OC(N)=O)[C@@H](OC)/C=C\C=C(/C)C(=O)NC(=CC1=O)C2=O` [17-AAG, tanespimycin, reference compound], the “concentrations at which invasion toward SVZ hNPC CM is decreased” value in series [1] (in vitro, inhibitor in the top insert) is reported as “above 1 μM”. Moreover, the Brain penetration entry in series [2] is on record as “less than 1 μM”.

For the compound `CCn1c(-c2nonc2N)nc2cnc(Oc3cccc(NC(=O)c4ccc(OCCN5CCOCC5)cc4)c3)cc21` [GSK 269962A, reference compound], the “DIPG invasion toward SVZ hNPC CM” value in series [1] was “decreased DIPG invasion toward SVZ hNPC CM in a dose-dependent manner”. In series [3], the “cell viability of DIPG cells” value is recorded as “do not affect cell viability at sub-μM concentrations”.

In the case of `CC1=C(C(=O)Nc2cc3cn[nH]c3cc2F)C(c2ccc(C(F)(F)F)cc2)CC(=O)N1` (stereo not drawn) [GSK 429286, reference compound], the “DIPG invasion toward SVZ hNPC CM” value in series [1] is given as “decreased DIPG invasion toward SVZ hNPC CM in a dose-dependent manner”. Further, in series [3], the “cell viability of DIPG cells” value is “do not affect cell viability at sub-μM concentrations”.

“sh-Ptn: lentivirus-expressed shRNA against mouse PTN, Sigma TRCNO000071676, SEQ ID NO: 8 (CCGGGCACAATGCTGACTGTCAGAACTCGAGTTCTGACAGTCAGCATTGTGCTTTTTG)”: in series [4], the “DIPG cells invading the SVZ” value is reported as “fewer orthotopically xenografted GFP^+ HNA^+ SU-DIPG-XIII FL cells invaded the SVZ”, the “density of Sox2+ neural stem/precursor cells in the SVZ” value is listed as “equivalent” and the “tumor engraftment (bioluminescent flux)” value is “equivalent”. Further, the “DIPG cells invading the SVZ” value in series [4] (listed as shRNA targeting Ptn) was “fewer DIPG cells invaded the SVZ”. Further, the “density of Sox2+ neural stem/precursor cells in the SVZ” value in series [4] (listed as Ptn shRNA) is on record as “equivalent numbers of Sox2^+ NPCs”. Also, in series [5], the “knockdown of pleiotrophin expression” value was “effective knockdown of pleiotrophin expression”.
